Like-named read-outs stand apart in the source and are kept apart here.
Tests used:
[1] = tested on: Key Broadleaf Weed and Crop Species; test: Post-emergent Test II herbicidal activity (Table 5); assay type: in vivo; conditions: post-emergence, 336 h, post-emergent, 14 days after application; for pest or weed control at 70 g/ha: 70 g ai/ha; for pest or weed control at 140 g/ha: 140 g ai/ha
Method in brief: (§1)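 Test species were raised 7–21 d under greenhouse conditions until reaching the first or second true leaf, sprayed with formulated compound at 187 L/ha, and kept subirrigated to avoid wash-off. Fourteen days later, damage was rated visually on a 0–100% scale against untreated plants.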

[2] = tested on: Key Grass and Sedge Weeds as well as Grass Crops; test: Post-emergent Test II herbicidal activity (Table 6); assay type: in vivo; conditions: post-emergence, 336 h; for pest or weed control at 70 g/ha: application rate 70 g ai/ha; for pest or weed control at 140 g/ha: application rate 140 g ai/ha
Method in brief: as §1

[3] = ABUTH: velvetleaf (Abutilon theophrasti), read-out: Visual Growth Reduction (%) 14 Days After Application ABUTH
[4] = AMARE: redroot pigweed (Amaranthus retroflexus), read-out: Visual Growth Reduction (%) 14 Days After Application AMARE
[5] = BRSNN: oilseed-rape, canola (Brassica napus), read-out: Visual Growth Reduction (%) 14 Days After Application BRSNN
[6] = CHEAL: lambsquarters (Chenopodium album), read-out: Visual Growth Reduction (%) 14 Days After Application CHEAL
[7] = EPHHL: wild poinsettia (Euphorbia heterophylla), read-out: Visual Growth Reduction (%) 14 Days After Application EPHHL
[8] = HELAN: sunflower (Helianthus annuus), read-out: Visual Growth Reduction (%) 14 Days After Application HELAN
[9] = VIOTR: wild pansy (Viola tricolor), read-out: Visual Growth Reduction (%) 14 Days After Application VIOTR
[10] = Triticum aestivum, TRZSS (wheat), read-out: Visual Growth Reduction (%) 14 Days After Application, TRZSS
[11] = CYPES: yellow nutsedge (Cyperus esculentus), read-out: Visual Growth Reduction (%) 14 Days After Application, CYPES
[12] = DIGSA: crabgrass (Digitaria sanguinalis), read-out: Visual Growth Reduction (%) 14 Days After Application, DIGSA
[13] = ECHCG: barnyardgrass (Echinochloa crus-galli), read-out: Visual Growth Reduction (%) 14 Days After Application, ECHCG
[14] = ORYSA: rice (Oryza sativa), read-out: Visual Growth Reduction (%) 14 Days After Application, ORYSA
[15] = SETFA: giant foxtail (Setaria faberi), read-out: Visual Growth Reduction (%) 14 Days After Application, SETFA
[16] = SORVU: grain sorghum (Sorghum vulgare), read-out: Visual Growth Reduction (%) 14 Days After Application, SORVU
[17] = ZEAMX: maize, corn (Zea mays), read-out: Visual Growth Reduction (%) 14 Days After Application, ZEAMX

`Nc1cc(-c2ccc(I)c(F)c2)nc(C(=O)O)c1Cl` [Compound 77, 4-amino-3-chloro-6-(3-fluoro-4-iodophenyl)picolinic acid] gave a pest or weed control at 70 g/ha [1, 3] of 85 to 94%, a pest or weed control at 140 g/ha [1, 3] of 95 to 100% and a pest or weed control at 70 g/ha [1, 4] of 95 to 100%. It also gave a pest or weed control at 140 g/ha [1, 4] of 95 to 100%, a pest or weed control at 70 g/ha [1, 5] of 75 to 84% and a pest or weed control at 140 g/ha [1, 5] of 85 to 94%. The pest or weed control at 70 g/ha [1, 6] was 95 to 100%, the pest or weed control at 140 g/ha [1, 6] was 95 to 100% and the pest or weed control at 70 g/ha [1, 7] was 95 to 100%. It also gave a pest or weed control at 140 g/ha [1, 7] of 95 to 100%, a pest or weed control at 70 g/ha [1, 8] of 85 to 94% and a pest or weed control at 140 g/ha [1, 8] of 85 to 94%. The pest or weed control at 70 g/ha [1, 9] was 0 to 29%, the pest or weed control at 140 g/ha [1, 9] was 0 to 29% and the pest or weed control at 70 g/ha [2, 10] was 45 to 59%. The pest or weed control at 140 g/ha [2, 10] was 45 to 59%, the pest or weed control at 70 g/ha [2, 11] was 0 to 29% and the pest or weed control at 140 g/ha [2, 11] was 45 to 59%. The pest or weed control at 70 g/ha [2, 12] was 75 to 84%, the pest or weed control at 140 g/ha [2, 12] was 85 to 94% and the pest or weed control at 70 g/ha [2, 13] was 60 to 74%. The pest or weed control at 140 g/ha [2, 13] was 60 to 74%, the pest or weed control at 70 g/ha [2, 14] was 0 to 29% and the pest or weed control at 140 g/ha [2, 14] was 0 to 29%. It also gave a pest or weed control at 70 g/ha [2, 15] of 0 to 29%, a pest or weed control at 140 g/ha [2, 15] of 0 to 29% and a pest or weed control at 70 g/ha [2, 16] of 45 to 59%. The pest or weed control at 140 g/ha [2, 16] was 45 to 59%, the pest or weed control at 70 g/ha [2, 17] was 0 to 29% and the pest or weed control at 140 g/ha [2, 17] was 0 to 29%.
